# Experimental data from publication PMC5218480 (PLoS ONE, 2017).
# Tested on: MV-4-11 cells
# Assay: Gene expression microarray analysis (Affymetrix PrimeView) and GSEA
# Assay type: cell-based, human
# Set-up: RFU PODN (11730768_x_at) / Fold change /veh PODN (11730768_x_at) / RFU LINC00158 (11744669_a_at) / Fold change /veh LINC00158 (11744669_a_at) / RFU DUSP10 (11751237_a_at) / Fold change /veh DUSP10 (11751237_a_at) / RFU ID3 (11757404_x_at) / Fold change /veh ID3 (11757404_x_at) / RFU PLEKHG5 (11737974_s_at) / Fold change /veh PLEKHG5 (11737974_s_at) / RFU LRRC4B (11730491_at) / Fold change /veh LRRC4B (11730491_at) / RFU GIMAP4 (11747438_a_at) / Fold change /veh GIMAP4 (11747438_a_at) / RFU KRT8 (11758183_x_at) / Fold change /veh KRT8 (11758183_x_at) / RFU CNN1 (11734310_a_at) / Fold change /veh CNN1 (11734310_a_at) / RFU VPS37D (11726825_at) / Fold change /veh VPS37D (11726825_at) / RFU C10orf10 (11716522_x_at) / Fold change /veh C10orf10 (11716522_x_at) / RFU KIR2DL2 /// KIR2DL4 /// KIR2DL5A /// KIR2DL5B /// KIR2DS1 /// KIR2DS2 /// KIR2DS3 /// KIR2DS4 /// KIR3DL3 /// KIR3DL3 /// KIR3DS1 (11738374_at) / Fold change /veh KIR2DL2 /// KIR2DL4 /// KIR2DL5A /// KIR2DL5B /// KIR2DS1 /// KIR2DS2 /// KIR2DS3 /// KIR2DS4 /// KIR3DL3 /// KIR3DL3 /// KIR3DS1 (11738374_at) / RFU C1QL1 (11718748_at) / Fold change /veh C1QL1 (11718748_at) / RFU TMPRSS4 (11747572_a_at) / Fold change /veh TMPRSS4 (11747572_a_at) / RFU HAMP (11756126_x_at) / Fold change /veh HAMP (11756126_x_at) / RFU RNFT2 (11725882_a_at) / Fold change /veh RNFT2 (11725882_a_at) / RFU NR4A2 (11747474_a_at) / Fold change /veh NR4A2 (11747474_a_at) / RFU ABCC12 (11746883_a_at) / Fold change /veh ABCC12 (11746883_a_at) / RFU TMEM136 (11760407_x_at) / Fold change /veh TMEM136 (11760407_x_at) / RFU CLDN22 /// WWC2 (11732394_at) / Fold change /veh CLDN22 /// WWC2 (11732394_at) / RFU HLA-DPB1 (11760878_x_at) / Fold change /veh HLA-DPB1 (11760878_x_at) / RFU SPINT1 (11716480_a_at) / Fold change /veh SPINT1 (11716480_a_at) / RFU GAP43 (11754022_s_at) / Fold change /veh GAP43 (11754022_s_at) / RFU A4GNT (11735810_at) / Fold change /veh A4GNT (11735810_at) / RFU PRB3 (11715151_x_at) / Fold change /veh PRB3 (11715151_x_at) / RFU TUBB4B (11761932_at) / Fold change /veh TUBB4B (11761932_at) / RFU CAPN14 (11732068_a_at) / Fold change /veh CAPN14 (11732068_a_at) / RFU TMCC2 (11721928_a_at) / Fold change /veh TMCC2 (11721928_a_at) / RFU IRGQ (11745062_a_at) / Fold change /veh IRGQ (11745062_a_at) / RFU FAM174B (11720279_a_at) / Fold change /veh FAM174B (11720279_a_at) / RFU TMPRSS4 (11748680_a_at) / Fold change /veh TMPRSS4 (11748680_a_at) / RFU FAM212B (11763350_a_at) / Fold change /veh FAM212B (11763350_a_at) / RFU PLEKHG5 (11743358_a_at) / Fold change /veh PLEKHG5 (11743358_a_at) / RFU ZSCAN30 (11745921_a_at) / Fold change /veh ZSCAN30 (11745921_a_at) / RFU CMKLR1 (11741424_a_at) / Fold change /veh CMKLR1 (11741424_a_at) / RFU LOC101060620 /// MAPK8IP1 (11723275_at) / Fold change /veh LOC101060620 /// MAPK8IP1 (11723275_at) / RFU SPTSSB (11747773_x_at) / Fold change /veh SPTSSB (11747773_x_at) / RFU PRSS12 (11739890_at) / Fold change /veh PRSS12 (11739890_at) / RFU BIN1 (11741810_x_at) / Fold change /veh BIN1 (11741810_x_at) / RFU WNT11 (11732464_a_at) / Fold change /veh WNT11 (11732464_a_at) / RFU C10orf10 (11716521_a_at) / Fold change /veh C10orf10 (11716521_a_at) / RFU C5orf56 (11738089_at) / Fold change /veh C5orf56 (11738089_at) / RFU CYB561 (11721691_x_at) / Fold change /veh CYB561 (11721691_x_at) / RFU ANKRD19P (11752326_a_at) / Fold change /veh ANKRD19P (11752326_a_at) / RFU OR2T12 /// OR2T33 /// OR2T8 (11738714_s_at) / Fold change /veh OR2T12 /// OR2T33 /// OR2T8 (11738714_s_at) / RFU VCAN (11748164_a_at) / Fold change /veh VCAN (11748164_a_at) / RFU JSRP1 (11732532_at) / Fold change /veh JSRP1 (11732532_at) / RFU KRTAP10-11 (11738290_x_at) / Fold change /veh KRTAP10-11 (11738290_x_at) / RFU MYO3A (11730013_a_at) / Fold change /veh MYO3A (11730013_a_at) / RFU EBF3 (11725865_a_at) / Fold change /veh EBF3 (11725865_a_at) / RFU CAMK2N1 (11719241_x_at) / Fold change /veh CAMK2N1 (11719241_x_at) / RFU C5orf56 (11738088_a_at) / Fold change /veh C5orf56 (11738088_a_at) / RFU OLFML3 (11715873_a_at) / Fold change /veh OLFML3 (11715873_a_at) / RFU LOC100653217 /// NTM (11731650_a_at) / Fold change /veh LOC100653217 /// NTM (11731650_a_at) / RFU MAPK11 (11762145_a_at) / Fold change /veh MAPK11 (11762145_a_at) / RFU FIZ1 (11724087_x_at) / Fold change /veh FIZ1 (11724087_x_at) / RFU OASL (11726364_x_at) / Fold change /veh OASL (11726364_x_at) / RFU SOX15 (11748057_x_at) / Fold change /veh SOX15 (11748057_x_at) / RFU CD79A (11719716_a_at) / Fold change /veh CD79A (11719716_a_at) / RFU HIST1H1D (11736915_at) / Fold change /veh HIST1H1D (11736915_at) / RFU CASKIN2 (11723855_a_at) / Fold change /veh CASKIN2 (11723855_a_at) / RFU LOC730098 (11760151_x_at) / Fold change /veh LOC730098 (11760151_x_at) / RFU OR4N2 (11742367_at) / Fold change /veh OR4N2 (11742367_at) / RFU PRRT2 (11749266_a_at) / Fold change /veh PRRT2 (11749266_a_at) / RFU SNX32 (11753110_a_at) / Fold change /veh SNX32 (11753110_a_at) / RFU CDHR5 (11726645_a_at) / Fold change /veh CDHR5 (11726645_a_at) / RFU RCAN1 (11760418_a_at) / Fold change /veh RCAN1 (11760418_a_at) / RFU FAM167A (11723789_a_at) / Fold change /veh FAM167A (11723789_a_at) / RFU FAM26E (11764081_at) / Fold change /veh FAM26E (11764081_at) / RFU ISYNA1 (11749810_s_at) / Fold change /veh ISYNA1 (11749810_s_at) / RFU ACY1 (11761880_at) / Fold change /veh ACY1 (11761880_at) / RFU 11764098_at / Fold change /veh 11764098_at / RFU SAMD14 (11745864_x_at) / Fold change /veh SAMD14 (11745864_x_at) / RFU NPB (11741838_a_at) / Fold change /veh NPB (11741838_a_at) / RFU TMPRSS6 (11731388_a_at) / Fold change /veh TMPRSS6 (11731388_a_at) / RFU KRTAP10-2 (11738614_at) / Fold change /veh KRTAP10-2 (11738614_at) / RFU ARHGAP8 /// PRR5-ARHGAP8 (11727945_x_at) / Fold change /veh ARHGAP8 /// PRR5-ARHGAP8 (11727945_x_at) / RFU KRTAP5-7 /// NADSYN1 (11734609_at) / Fold change /veh KRTAP5-7 /// NADSYN1 (11734609_at) / RFU RASL12 (11751679_a_at) / Fold change /veh RASL12 (11751679_a_at) / RFU CDKN2B (11736163_a_at) / Fold change /veh CDKN2B (11736163_a_at) / RFU PRF1 (11729649_at) / Fold change /veh PRF1 (11729649_at) / RFU, ZNF638 /// ZNF638-IT1 / Fold change vs veh, ZNF638 /// ZNF638-IT1 / RFU, PANK3 / Fold change vs veh, PANK3 / RFU, SH3YL1 / Fold change vs veh, SH3YL1 / RFU, ZEB2 / Fold change vs veh, ZEB2 / RFU, NRIP1 / Fold change vs veh, NRIP1 / RFU, PTTG1IP / Fold change vs veh, PTTG1IP / RFU, CAPN2 / Fold change vs veh, CAPN2 / RFU, MED14 / Fold change vs veh, MED14 / RFU, SNORA58 / Fold change vs veh, SNORA58 / RFU, C1orf63 / Fold change vs veh, C1orf63 / RFU, LRRFIP1 / Fold change vs veh, LRRFIP1 / RFU, NDUFAF7 / Fold change vs veh, NDUFAF7 / RFU, SLC12A2 / Fold change vs veh, SLC12A2 / RFU, IBTK / Fold change vs veh, IBTK / RFU, ESF1 / Fold change vs veh, ESF1 / Fold change vs veh, TMEM50B / RFU, TAOK1 / Fold change vs veh, TAOK1 / RFU, ACBD3 / Fold change vs veh, ACBD3 / RFU, TMA16 / Fold change vs veh, TMA16 / RFU, RWDD3 / Fold change vs veh, RWDD3 / RFU, BCAT1 / Fold change vs veh, BCAT1 / RFU, EDEM3 / Fold change vs veh, EDEM3 / RFU, TMEM33 / Fold change vs veh, TMEM33 / RFU, WDR75 / Fold change vs veh, WDR75 / RFU, AHCTF1 / Fold change vs veh, AHCTF1 / RFU, TFRC / Fold change vs veh, TFRC / RFU, ZDHHC17 / Fold change vs veh, ZDHHC17 / RFU, NOM1 / Fold change vs veh, NOM1 / RFU, ARL8B / Fold change vs veh, ARL8B / RFU, ZBTB11 / Fold change vs veh, ZBTB11 / RFU, TAMM41 / Fold change vs veh, TAMM41 / RFU, KIAA1704 /// LOC100996395 / Fold change vs veh, KIAA1704 /// LOC100996395 / RFU, ING1 / Fold change vs veh, ING1 / RFU, TRMT61B / Fold change vs veh, TRMT61B / RFU, FUBP3 / Fold change vs veh, FUBP3 / RFU, TP53 / Fold change vs veh, TP53 / RFU, TNKS2 / Fold change vs veh, TNKS2 / RFU, ZFP14 / Fold change vs veh, ZFP14 / RFU, ACTR2 / Fold change vs veh, ACTR2 / RFU, PPP3R1 / Fold change vs veh, PPP3R1 / RFU, PIK3R1 / Fold change vs veh, PIK3R1 / RFU, HNRNPA1 / Fold change vs veh, HNRNPA1 / RFU, RNF170 / Fold change vs veh, RNF170 / RFU, ZNF28 / Fold change vs veh, ZNF28 / RFU, RNGTT / Fold change vs veh, RNGTT / RFU, OGT / Fold change vs veh, OGT / RFU, BRD1 / Fold change vs veh, BRD1 / RFU, MARS / Fold change vs veh, MARS / RFU, ZNF655 / Fold change vs veh, ZNF655 / RFU, FAHD1 / Fold change vs veh, FAHD1 / RFU, BDP1 / Fold change vs veh, BDP1 / RFU, LRRCC1 / Fold change vs veh, LRRCC1 / RFU, ARID1A / Fold change vs veh, ARID1A / RFU, ZNF146 / Fold change vs veh, ZNF146 / RFU, ZNF330 / Fold change vs veh, ZNF330 / RFU, GPN3 / Fold change vs veh, GPN3 / RFU, C9orf123 / Fold change vs veh, C9orf123 / RFU, N4BP2L2 / Fold change vs veh, N4BP2L2 / RFU, ARFIP1 / Fold change vs veh, ARFIP1 / RFU, FAM179B / Fold change vs veh, FAM179B / RFU, BCL10 / Fold change vs veh, BCL10 / RFU, UHRF1BP1L / Fold change vs veh, UHRF1BP1L / RFU, BET1 / Fold change vs veh, BET1 / RFU, CNOT2 / Fold change vs veh, CNOT2 / RFU, ZNF268 / Fold change vs veh, ZNF268 / Fold change vs veh, ZNF507 / RFU, DGCR2 / Fold change vs veh, DGCR2 / RFU, WDSUB1 / Fold change vs veh, WDSUB1 / Fold change vs veh, HSP90B1 /// MIR3652 / RFU, ADSS / Fold change vs veh, ADSS / RFU, GK / Fold change vs veh, GK / RFU, ZNF148 / Fold change vs veh, ZNF148 / RFU, TAF9 / Fold change vs veh, TAF9 / RFU, SLC1A5 / Fold change vs veh, SLC1A5 / RFU, SLMO2 / Fold change vs veh, SLMO2 / RFU, ABCC4 / Fold change vs veh, ABCC4 / RFU, LOC101060439 /// RAP1B / Fold change vs veh, LOC101060439 /// RAP1B / RFU, RFX7 / Fold change vs veh, RFX7 / RFU, GTPBP10 / Fold change vs veh, GTPBP10 / RFU, CNEP1R1 / Fold change vs veh, CNEP1R1 / RFU, BIVM-ERCC5 /// ERCC5 / Fold change vs veh, BIVM-ERCC5 /// ERCC5 / RFU, ILF3 / Fold change vs veh, ILF3 / RFU 11762660_at / Fold change /veh 11762660_at / RFU VCAN (11757783_s_at) / Fold change /veh VCAN (11757783_s_at) / RFU DDX43 (11728927_at) / Fold change /veh DDX43 (11728927_at) / RFU KRT8 (11758188_x_at) / Fold change /veh KRT8 (11758188_x_at) / RFU NKD1 (11759106_at) / Fold change /veh NKD1 (11759106_at) / RFU SRD5A1 (11742802_a_at) / Fold change /veh SRD5A1 (11742802_a_at) / RFU TPSAB1 /// TPSB2 (11721975_s_at) / Fold change /veh TPSAB1 /// TPSB2 (11721975_s_at) / RFU GSTM3 (11746129_a_at) / Fold change /veh GSTM3 (11746129_a_at) / RFU IL23R (11737362_x_at) / Fold change /veh IL23R (11737362_x_at) / RFU TMEM51 (11727254_a_at) / Fold change /veh TMEM51 (11727254_a_at) / RFU PIWIL2 (11732686_x_at) / Fold change /veh PIWIL2 (11732686_x_at) / RFU ORM1 (11744905_x_at) / Fold change /veh ORM1 (11744905_x_at) / RFU CCDC152 (11743942_at) / Fold change /veh CCDC152 (11743942_at) / RFU ECM1 (11717891_a_at) / Fold change /veh ECM1 (11717891_a_at) / RFU IL23R (11748794_a_at) / Fold change /veh IL23R (11748794_a_at) / RFU TNFAIP8L3 (11732012_x_at) / Fold change /veh TNFAIP8L3 (11732012_x_at) / RFU MBOAT4 (11741988_at) / Fold change /veh MBOAT4 (11741988_at) / RFU 11764193_at / Fold change /veh 11764193_at / RFU TMEM53 (11763286_at) / Fold change /veh TMEM53 (11763286_at) / RFU MAGEB2 (11727129_at) / Fold change /veh MAGEB2 (11727129_at) / RFU TMEM200A (11744735_a_at) / Fold change /veh TMEM200A (11744735_a_at) / RFU CCDC152 (11751479_a_at) / Fold change /veh CCDC152 (11751479_a_at) / RFU FAM211A (11726209_a_at) / Fold change /veh FAM211A (11726209_a_at) / RFU RGS16 (11746705_a_at) / Fold change /veh RGS16 (11746705_a_at) / RFU VCAN (11755009_s_at) / Fold change /veh VCAN (11755009_s_at) / RFU RHOB (11743442_s_at) / Fold change /veh RHOB (11743442_s_at) / RFU RGS16 (11720943_a_at) / Fold change /veh RGS16 (11720943_a_at) / RFU RGS16 (11720944_at) / Fold change /veh RGS16 (11720944_at) / RFU, VPS4B / Fold change vs veh, VPS4B / RFU, CREB1 / Fold change vs veh, CREB1 / RFU, DNAJC13 / Fold change vs veh, DNAJC13 / RFU, GNAQ / Fold change vs veh, GNAQ / RFU, CDK5R1 / Fold change vs veh, CDK5R1 / RFU, ZRANB3 / Fold change vs veh, ZRANB3 / RFU, CUL4A / Fold change vs veh, CUL4A / RFU, CCNY / Fold change vs veh, CCNY / RFU, UFL1 / Fold change vs veh, UFL1 / RFU, COG3 / Fold change vs veh, COG3 / RFU, DIAPH2 / Fold change vs veh, DIAPH2 / RFU, SKA2 / Fold change vs veh, SKA2 / RFU, AFF3 / Fold change vs veh, AFF3 / RFU, LMF1 / Fold change vs veh, LMF1 / RFU, IPO11 / Fold change vs veh, IPO11 / RFU, DFFB / Fold change vs veh, DFFB / RFU, FOXP1 / Fold change vs veh, FOXP1 / RFU, CARD8 / Fold change vs veh, CARD8 / RFU, STRN3 / Fold change vs veh, STRN3 / RFU, ADK / Fold change vs veh, ADK / RFU, RASSF2 / Fold change vs veh, RASSF2 / RFU, WIPF1 / Fold change vs veh, WIPF1 / RFU, LARP1B / Fold change vs veh, LARP1B / RFU, RASA1 / Fold change vs veh, RASA1 / RFU, RB1 / Fold change vs veh, RB1 / RFU, PPFIA1 / Fold change vs veh, PPFIA1 / RFU, MAT2A / Fold change vs veh, MAT2A / RFU, CCT5 / Fold change vs veh, CCT5 / RFU, WDR92 / Fold change vs veh, WDR92 / RFU, CUX1 / Fold change vs veh, CUX1 / RFU, TTC7A / Fold change vs veh, TTC7A / RFU, TMEM135 / Fold change vs veh, TMEM135 / RFU, DEPTOR / Fold change vs veh, DEPTOR / RFU, CPM / Fold change vs veh, CPM / RFU, DNAJB6 / Fold change vs veh, DNAJB6 / RFU, CACNA2D3 / Fold change vs veh, CACNA2D3 / RFU, DTX4 / Fold change vs veh, DTX4 / RFU, TFCP2 / Fold change vs veh, TFCP2 / RFU, GMCL1 /// GMCL1P1 / Fold change vs veh, GMCL1 /// GMCL1P1 / RFU, AEBP2 / Fold change vs veh, AEBP2 / RFU, SNHG1 /// SNORD22 /// SNORD25 /// SNORD26 /// SNORD27 /// SNORD28 /// SNORD29 /// SNORD31 / Fold change vs veh, SNHG1 /// SNORD22 /// SNORD25 /// SNORD26 /// SNORD27 /// SNORD28 /// SNORD29 /// SNORD31 / Fold change (Aza/veh), C12orf56 (ProbeSet 11735607_a_at) / Fold change (ACY-1035/veh), C12orf56 (ProbeSet 11735607_a_at) / Fold change (Aza/veh), FGFR1OP (ProbeSet 11751329_s_at) / Fold change (ACY-1035/veh), FGFR1OP (ProbeSet 11751329_s_at) / Fold change (Aza/veh), VPS36 (ProbeSet 11739960_a_at) / Fold change (ACY-1035/veh), VPS36 (ProbeSet 11739960_a_at) / RFU SYPL1 (11715823_x_at) / Fold change /veh SYPL1 (11715823_x_at) / RFU IGFBP7 (11715501_s_at) / Fold change /veh IGFBP7 (11715501_s_at) / RFU REEP3 (11722064_at) / Fold change /veh REEP3 (11722064_at) / RFU IGLL1 (11728026_x_at) / Fold change /veh IGLL1 (11728026_x_at): dose or concentration left out as unconfirmed
# Conditions: ProbeSet 11741311_a_at; LIST B
compound,measurement,value
Nc1ncn([C@@H]2O[C@H](CO)[C@@H](O)[C@H]2O)c(=O)n1 [azacitidine],"Fold change vs veh, ZNF655",0.98
